Data from patent US10934310B2, “Inhibitors of Bruton's tyrosine kinase and method of their use” (JANSSEN PHARMACEUTICA NV, priority 2015, dated 2021).

target: unphosphorylated-BTK kinase domain (UP-BTK), GST-tagged human BTK (389-659aa) (Homo sapiens (Human), UniProt Q06187); test: BTK Kinase Lanthascreen Binding Assay; details: Lanthascreen binding, 60 minutes incubation; pIC50 = negative log of the IC50 in molar
Experimental: BTK Kinase Lanthascreen Binding Assay:
A BTK kinase lanthascreen binding assay monitors compound binding to unphosphorylated-BTK kinase domain (UP-BTK), by competing with a fluorescent labeled tracer. […] Data were analyzed using Xlfit™ version 5.3 from ID Business Solutions (Guildford), Microsoft Excel add-in. pIC50 refers to the negative log of the IC50 in molar.

Chain of unphosphorylated-BTK kinase domain (UP-BTK), GST-tagged human BTK (389-659aa) (Q06187 389-659): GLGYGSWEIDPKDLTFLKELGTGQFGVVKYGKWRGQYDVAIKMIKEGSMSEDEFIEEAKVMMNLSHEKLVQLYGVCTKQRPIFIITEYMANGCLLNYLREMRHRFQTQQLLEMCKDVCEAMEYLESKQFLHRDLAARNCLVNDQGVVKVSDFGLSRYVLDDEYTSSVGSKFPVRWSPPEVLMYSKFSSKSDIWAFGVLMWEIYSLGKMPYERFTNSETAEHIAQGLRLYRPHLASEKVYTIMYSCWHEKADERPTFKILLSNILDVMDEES

| BTK_I_binding pIC50 | SMILES |
| --- | --- |
| 7.97 | C=CC(=O)N[C@@H]1CCC[C@H]1NC(=O)c1sc2nccc3c2c1NC(=O)N3c1ccc(Oc2ccccc2)nc1C (single isomer, unassigned) [Example 301, N-((1R,2R)-2-Acrylamidocyclopentyl)-5-(*S)-(2-methyl-6-phenoxypyridin-3-yl)-4-oxo-4,5-dihydro-3H-1-thia-3,5,8-triazaacenaphthylene-2-carboxamide] |

same assay, conditions: compound, 50 nM Tracer 236, 2 nM anti-GST antibody, 60 minutes; pIC50 = negative log of the IC50 in molar

| SMILES | BTK_I_binding pIC50 |
| --- | --- |
| Cc1cc(Oc2ccccc2)ccc1N1C(=O)Nc2c(C(=O)N[C@H]3CCC[C@H](NC(=O)CN(C)C)C3)sc3nccc1c23 (single isomer, unassigned) [Example 252, N-((1R,3S)-3-(2-(Dimethylamino)acetamido)cyclohexyl)-5-(*S)-(2-methyl-4-phenoxyphenyl)-4-oxo-4,5-dihydro-3H-1-thia-3,5,8-triazaacenaphthylene-2-carboxamide] | 6.63 |
| C=CC(=O)N[C@@H]1CCCC[C@H]1NC(=O)c1sc2nccc3c2c1NC(=O)N3c1ccc(OC(C)C)cc1C (single isomer, unassigned) [Example 264, N-((1R,2R)-2-Acrylamidocyclohexyl)-5-(*R)-(4-isopropoxy-2-methylphenyl)-4-oxo-4,5-dihydro-3H-1-thia-3,5,8-triazaacenaphthylene-2-carboxamide] | 6.26 |
| C=CC(=O)N[C@H]1CCCC[C@H]1NC(=O)c1sc2nccc3c2c1NC(=O)N3c1cnc(OC2CCC2)cc1C (single isomer, unassigned) [Example 266, N-((1R,2S)-2-Acrylamidocyclohexyl)-5-(*R)-(6-cyclobutoxy-4-methylpyridin-3-yl)-4-oxo-4,5-dihydro-3H-1-thia-3,5,8-triazaacenaphthylene-2-carboxamide] | 6.21 |

Continued, values first:

| BTK_I_binding pIC50 | SMILES |
| --- | --- |
| 6.71 | Cc1cc(Oc2ccccc2)ccc1N1C(=O)Nc2c(C(=O)N[C@H]3CCC[C@H](NC(=O)CN)C3)sc3nccc1c23 (single isomer, unassigned) [Example 251, N-((1R,3S)-3-(2-Aminoacetamido)cyclohexyl)-5-(*S)-(2-methyl-4-phenoxyphenyl)-4-oxo-4,5-dihydro-3H-1-thia-3,5,8-triazaacenaphthylene-2-carboxamide] |
| 6.63 | CC(=O)N[C@H]1CCC[C@H](NC(=O)c2sc3nccc4c3c2NC(=O)N4c2ccc(Oc3ccccc3)cc2C)C1 (single isomer, unassigned) [Example 253, N-((1R,3S)-3-Acetamidocyclohexyl)-5-(*S)-(2-methyl-4-phenoxyphenyl)-4-oxo-4,5-dihydro-3H-1-thia-3,5,8-triazaacenaphthylene-2-carboxamide] |
| 6.55 | Cc1nc(Oc2ccccc2)ncc1N1C(=O)Nc2c(C(=O)N[C@@H]3CCC[C@@H]3N)sc3nccc1c23 (single isomer, unassigned) [Example 254, N-((1R,2S)-2-aminocyclopentyl)-5-(*)-(4-methyl-2-phenoxypyrimidin-5-yl)-4-oxo-4,5-dihydro-3H-1-thia-3,5,8-triazaacenaphthylene-2-carboxamide] |
| 6.51 | Cc1cc(Oc2ccccc2)ncc1N1C(=O)Nc2c(C(=O)N[C@@H]3CCCC[C@H]3N)sc3nccc1c23 (single isomer, unassigned) [Example 255, N-((1R,2R)-2-Aminocyclohexyl)-5-(*S)-(4-methyl-6-phenoxypyridin-3-yl)-4-oxo-4,5-dihydro-3H-1-thia-3,5,8-triazaacenaphthylene-2-carboxamide] |
| 6.48 | Cc1nc(Oc2ccccc2)ncc1N1C(=O)Nc2c(C(=O)N[C@@H]3CCC[C@H]3N)sc3nccc1c23 (single isomer, unassigned) [Example 256, N-((1R,2R)-2-Aminocyclopentyl)-5-(*S)-(4-methyl-2-phenoxypyrimidin-5-yl)-4-oxo-4,5-dihydro-3H-1-thia-3,5,8-triazaacenaphthylene-2-carboxamide] |
| 6.45 | Cc1cc(Oc2ccccc2)ccc1N1C(=O)Nc2c(C(=O)N[C@H]3CC[C@H](N)C3)sc3nccc1c23 (single isomer, unassigned) [Example 259, N-((1S,3S)-3-Aminocyclopentyl)-5-(*S)-(2-methyl-4-phenoxyphenyl)-4-oxo-4,5-dihydro-3H-1-thia-3,5,8-triazaacenaphthylene-2-carboxamide] |
| 6.42 | Cc1cc(Oc2ccccc2)ccc1N1C(=O)Nc2c(C(=O)N[C@@H]3CCC[C@H](N)C3)sc3nccc1c23 (single isomer, unassigned) [Example 261, N-((1R,3S)-3-Aminocyclohexyl)-5-(*S)-(2-methyl-4-phenoxyphenyl)-4-oxo-4,5-dihydro-3H-1-thia-3,5,8-triazaacenaphthylene-2-carboxamide] |
| 6.39 | Cc1cc(OC(C)C)ccc1N1C(=O)Nc2c(C(=O)N[C@@H]3CCC[C@@H]3N)sc3nccc1c23 (single isomer, unassigned) [Example 262, N-((1R,2S)-2-Aminocyclopentyl)-5-(*R)-(4-isopropoxy-2-methylphenyl)-4-oxo-4,5-dihydro-3H-1-thia-3,5,8-triazaacenaphthylene-2-carboxamide] |

same assay, conditions: read-out: BTK_I_binding pIC50 (converted)

| IC50 [nM] | SMILES |
| --- | --- |
| > 1000 | C=CC(=O)N[C@H]1CCCC[C@@H]1NC(=O)c1sc2nccc3c2c1NC(=O)N3c1ccc(OC(C)C)cc1C (single isomer, unassigned) [Example 272, N-((1S,2S)-2-Acrylamidocyclohexyl)-5-(*R)-(4-isopropoxy-2-methylphenyl)-4-oxo-4,5-dihydro-3H-1-thia-3,5,8-triazaacenaphthylene-2-carboxamide] |
| > 1000 | C=CC(=O)N[C@@H]1CCCC[C@H]1NC(=O)c1sc2nccc3c2c1NC(=O)N3c1ccc(OC(C)C)cc1C (single isomer, unassigned) [Example 273, N-((1R,2R)-2-Acrylamidocyclohexyl)-5-(*S)-(4-isopropoxy-2-methylphenyl)-4-oxo-4,5-dihydro-3H-1-thia-3,5,8-triazaacenaphthylene-2-carboxamide] |
| > 1000 | C=CC(=O)N[C@H]1CC[C@@H](NC(=O)c2sc3nccc4c3c2NC(=O)N4c2ccc(OC(C)C)cc2C)C1 (single isomer, unassigned) [Example 276, N-((1R,3S)-3-Acrylamidocyclopentyl)-5-(*R)-(4-isopropoxy-2-methylphenyl)-4-oxo-4,5-dihydro-3H-1-thia-3,5,8-triazaacenaphthylene-2-carboxamide] |

| SMILES | IC50 [nM] |
| --- | --- |
| C=CC(=O)N[C@H]1CCC[C@H](NC(=O)c2sc3nccc4c3c2NC(=O)N4c2ccc(OC(C)C)cc2C)C1 (single isomer, unassigned) [Example 274, N-((1S, S)-3-Acrylamidocyclohexyl)-5-(*R)-(4-isopropoxy-2-methylphenyl)-4-oxo-4,5-dihydro-3H-1-thia-3,5,8-triazaacenaphthylene-2-carboxamide] | > 1000 |
| C=CC(=O)N[C@H]1CCC[C@@H](NC(=O)c2sc3nccc4c3c2NC(=O)N4c2ccc(OC(C)C)cc2C)C1 (single isomer, unassigned) [Example 275, N-((1R,3S)-3-Acrylamidocyclohexyl)-5-(*R)-(4-isopropoxy-2-methylphenyl)-4-oxo-4,5-dihydro-3H-1-thia-3,5,8-triazaacenaphthylene-2-carboxamide] | > 1000 |
